Results from patent US9271978B2 (Zenith Epigenetics Corp., priority 2012, dated 2016).

Tests used:
[1] = molecular target: T1, Brd4 bromodomain 1 (BRD4(1)) (Homo sapiens, UniProt O60885); assay: Inhibition of tetra-acetylated histone H4 binding to Brd4 bromodomain 1 (TR-FRET); set-up: key: Active: Compounds with an IC50 value less than 30 μM were deemed to be active.; Not Active: Compounds with an IC50 value less than 30 μM were deemed to be active; settings: tetra-acetylated histone H4 peptide, active = IC50 <30 μM
T1 construct: Illustrative results with the first bromodomain of Brd4; made in house; host or cells: E. coli BL21 (DE3)
Method in brief: (§1)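 N-terminally His-tagged bromodomains (200 nM), expressed in E. coli, were incubated with biotinylated tetra-acetylated histone H4 peptide (25-50 nM), Eu-cryptate streptavidin and XL665 anti-His antibody in HEPES pH 7.4 buffer with KF, 0.2% DMSO, 2 h at room temperature. Inhibition read as decreased 665/620 nm TR-FRET; IC50 from dose-response curves.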

ApoA-I mRNA = assay: Up-regulation of hApoA-1 mRNA transcription in Huh7 cells; assay type: cell-based, human; set-up: key: Active: Compounds with an EC170 value less than 30 μM were deemed to be active; settings: 48 h treatment, ApoA-I mRNA by real-time PCR, Active = EC170 less than 30 μM
Experimental: In this example, ApoA-I mRNA in tissue culture cells was quantitated to measure the transcriptional up-regulation of ApoA-I when treated with a compound of the present disclosure.
Huh7 cells (2.5×10^5 per well) were plated in a 96-well plate using 100 μL DMEM per well, (Gibco DMEM supplemented with penicillin/streptomycin and 10% FBS), 24 h before the addition of the compound of interest. After 48 h treatment, the spent media was removed from the Huh-7 cells and placed on ice (for immediate use) or at −80° C. (for future use) with the “LDH cytotoxicity assay Kit II” from Abcam. The cells remaining in the plate were rinsed with 100 μL PBS.
Then 85 μL of cell lysis solution was added to each well and incubated for 5-10 min at room temperature, to allow for complete cell lysis and detachment. mRNA was then prepared using the “mRNA Catcher PLUS plate” from Life Technologies, according to the protocol supplied. After the last wash, as much wash buffer as possible was aspirated without allowing the wells to dry. Elution Buffer (E3, 80 μL) was then added to each well. mRNA was then eluted by incubating the mRNA Catcher PLUS plate with Elution Buffer for 5 min at 68° C., and then 1 min at 4° C. Catcher plates with mRNA eluted were kept on ice for use or stored at −80° C.
The eluted mRNA isolated was then used in a one-step real-time PCR reaction, using components of the Ultra Sense Kit together with Life Technologies primer-probe mixes. Real-time PCR data was analyzed, using the Ct values, to determine the fold induction of each unknown sample, relative to the control (that is, relative to the control for each independent DMSO concentration).
Compounds with an EC170 value less than 30 μM were deemed to be active.

hIL-6 mRNA = assay: Inhibition of hIL-6 mRNA transcription in U937 cells; assay type: cell-based, human; set-up: key: Active: Compounds with an IC50 value less than 30 μM were deemed to be active.; Not Active: Compounds with an IC50 value less than 30 μM were deemed to be active; settings: LPS stimulation, active = IC50 <30 μM
Method in brief: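 U937 cells differentiated 3 days with 60 ng/mL PMA, pretreated 1 h with compound, then stimulated with 1 ug/mL E. coli LPS for 3 h at 37° C. hIL-6 mRNA quantified by one-step qRT-PCR, Ct normalized to internal control, expressed as fold induction relative to control.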

[2] = molecular target: T2, second bromodomain of Brd2 (BRD2(2)) (Homo sapiens, UniProt P25440); assay: Inhibition of tetra-acetylated histone H4 binding to Brd2 bromodomain 2 (TR-FRET); set-up: key: Active: Compounds with an IC50 value less than 30 μM were deemed to be active.; Not Active: Compounds with an IC50 value less than 30 μM were deemed to be active; settings: tetra-acetylated histone H4 peptide, active = IC50 <30 μM
T2 construct: made in house; host or cells: E. coli BL21 (DE3)
T2 sequence (P25440 344-453 limits assumed): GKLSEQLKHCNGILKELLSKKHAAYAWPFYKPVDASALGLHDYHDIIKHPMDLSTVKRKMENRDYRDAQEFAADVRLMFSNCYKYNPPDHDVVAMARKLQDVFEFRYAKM
Method in brief: as §1

c-myc = assay: Inhibition of c-myc expression in MV4-11 cells (mRNA, real-time PCR); assay type: cell-based; set-up: key: Active: Compounds with an IC50 value less than 30 μM were deemed to be active.; Not Active: Compounds with an IC50 value less than 30 μM were deemed to be active; settings: Human AML MV4-11 cells, 3 h incubation
Method in brief: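 MV4-11 cells (2.5×10^4) treated with compound or 0.1% DMSO for 3 h at 37 °C. c-myc mRNA measured by RT real-time PCR duplexed with cyclophilin. IC50 from dose–response curve.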

[3] = tested on: human AML MV-4-11 (CRL-9591) cells; assay: Inhibition of cell proliferation in MV4-11 cells; assay type: cell-based; set-up: key: Active: Compounds with an IC50 value less than 30 μM were deemed to be active.; Not Active: Compounds with an IC50 value less than 30 μM were deemed to be active; settings: human AML MV-4-11 cells, 72 h; active = IC50 <30 μM
Method in brief: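 Exponentially growing MV-4-11 cells (5×10^4/well) were treated immediately with two-fold dilutions of compound from 30 μM to 0.2 μM, in triplicate, for 72 h at 37° C, 5% CO2. Viability was measured by MTS absorbance at 490 nm after 3–4 h. Proliferation relative to DMSO after blank correction gave IC50.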

Compound | FRET activity (IC50 <30 μM) BRD4(1) [1] | IL-6 activity (IC50 <30 μM) (hIL-6 mRNA) | FRET activity (IC50 <30 μM) BRD2(2) [2] | c-myc activity (IC50 <30 μM) (c-myc) | Cell Proliferation activity (IC50 <30 μM) [3] | ApoA-1 activity (EC170 <30 μM) (ApoA-I mRNA)
Cc1onc(CO)c1-c1ccc(=O)n(Cc2ccccc2)c1 [Example 158, 1-Benzyl-5-(3-(hydroxymethyl)-5-methylisoxazol-4-yl)pyridin-2(1H)-one] | Active |  |  |  |  | Active
Cc1noc(CO)c1-c1ccc(=O)n(Cc2ccccc2)c1 [Example 214, 1-benzyl-5-(5-(hydroxymethyl)-3-methylisoxazol-4-yl)pyridin-2(1H)-one] | Active | Active |  |  |  | Active
Cc1nscc1-c1ccc(=O)n(Cc2ccccc2)c1 [Example 160, 1-Benzyl-5-(3-methylisothiazol-4-yl)pyridin-2(1H)-one] | Active |  |  |  |  | Active
COc1cc(-c2ccc(=O)n(Cc3cccc(C#N)c3)n2)cc(OC)c1OC [Example 15, 3-((6-Oxo-3-(3,4,5-trimethoxyphenyl)pyridazin-1(6H)-yl)methyl)benzonitrile] | Active | Active | Active | Not Active | Not Active | 
COc1ccc(-c2nn(Cc3ccccc3)c(=O)c3ccccc23)c(O)c1OC [Example 164, 2-Benzyl-4-(2-hydroxy-3,4-dimethoxyphenyl)phthalazin-1(2H)-one] | Active | Not Active | Active | Not Active | Active | 
COc1ccc(Nc2ccc(=O)n(Cc3ccccc3)c2)cc1OC [Example 65, 1-Benzyl-5-((3,4-dimethoxyphenyl)amino)pyridin-2(1H)-one] | Active | Active | Active | Active | Active | 
Cc1noc(C)c1-c1cc(Cl)c(=O)n(Cc2ccccc2)c1 [Example 64, 1-Benzyl-3-chloro-5-(3,5-dimethylisoxazol-4-yl)pyridin-2(1H)-one] | Active | Active | Active | Active | Active | 
Cc1noc(N)c1-c1ccc(=O)n(Cc2ccccc2)c1 [Example 98, 5-(5-Amino-3-methylisoxazol-4-yl)-1-benzylpyridin-2(1H)-one trifluoroacetic acid] | Active | Active | Active | Not Active | Active | 
Cc1noc(C)c1-c1cc(Nc2cccc(F)c2)c(=O)n(Cc2ccccc2)c1 [Example 157, 1-Benzyl-5-(3,5-dimethylisoxazol-4-yl)-3-((3-fluorophenyl)amino)pyridin-2(1H)-one] | Active |  |  |  |  | Active
Cc1noc(C)c1-c1ccc(=O)n(Cc2cccc(C(F)(F)F)c2)c1 [Example 4, 5-(3,5-Dimethylisoxazol-4-yl)-1-(3-(trifluoromethyl)benzyl)pyridin-2(1H)-one] | Active | Active | Active | Active | Active | 

Further lines, with some results ahead:

FRET activity (IC50 <30 μM) BRD4(1) [1] | IL-6 activity (IC50 <30 μM) (hIL-6 mRNA) | FRET activity (IC50 <30 μM) BRD2(2) [2] | c-myc activity (IC50 <30 μM) (c-myc) | Cell Proliferation activity (IC50 <30 μM) [3] | Compound | ApoA-1 activity (EC170 <30 μM) (ApoA-I mRNA)
Active | Active | Active | Active | Active | Cc1noc(C)c1-c1ccc(=O)n(C(C)c2ccccc2F)c1 (stereo not shown) [Example 124, 5-(3,5-Dimethylisoxazol-4-yl)-1-(1-(2-fluorophenyl)ethyl)pyridin-2(1H)-one] | 
Active |  |  |  |  | Cc1noc(C)c1-c1ccc(=O)n(Cc2ccc(Cl)c(Cl)c2)c1 [Example 155, 1-(3,4-Dichlorobenzyl)-5-(3,5-dimethylisoxazol-4-yl)pyridin-2(1H)-one] | Active
Active | Active | Active | Active | Active | Cc1cccc(Cn2cc(-c3c(C)noc3C)ccc2=O)c1 [Example 122, 5-(3,5-Dimethylisoxazol-4-yl)-1-(3-methylbenzyl)pyridin-2(1H)-one] | 
Active | Active | Active | Not Active | Not Active | Cc1noc(C)c1-c1cc(C)c(=O)n(Cc2ccccc2F)n1 [Example 84, 6-(3,5-Dimethylisoxazol-4-yl)-2-(2-fluorobenzyl)-4-methylpyridazin-3(2H)-one] | 
Active | Active | Active | Active | Active | Cc1noc(C)c1-c1ccc(=O)n(C(C)c2cccc(Cl)c2)c1 (stereo not shown) [Example 113, 1-(1-(3-Chlorophenyl)ethyl)-5-(3,5-dimethylisoxazol-4-yl)pyridin-2(1H)-one] | 
Active | Active | Active | Not Active | Not Active | Cc1noc(C)c1-c1ccc(=O)n(C(C)c2ccccc2F)n1 (stereo not shown) [Example 95, 6-(3,5-Dimethylisoxazol-4-yl)-2-(1-(2-fluorophenyl)ethyl)pyridazin-3(2H)-one] | 
Active | Active | Active | Active | Active | Cc1noc(C)c1-c1ccc(=O)n(C(C)c2ccccc2C(F)(F)F)n1 (stereo not shown) [Example 34, 6-(3,5-Dimethylisoxazol-4-yl)-2-(1-(2-(trifluoromethyl)phenyl)ethyl)pyridazin-3(2H)-one] | 
Active | Active | Active | Active | Active | Cc1noc(C)c1-c1ccc(=O)n(Cc2c(F)cccc2Cl)n1 [Example 96, 2-(2-Chloro-6-fluorobenzyl)-6-(3,5-dimethylisoxazol-4-yl)pyridazin-3(2H)-one] | 
